Structures can show the parent of a compound that is named as a salt.
Experiments:
[1] = system: lenticular opacities in galactosemic rats; test: severity of lenticular opacities in galactosemic rats (percentage of lens area involved); format: in vivo, rat; conditions: for lenses with area of involvement never less than 10%: 17 days, control 75%
Description: (§1) The activity of the compounds of the present invention, as agents for the control of chronic diabetic complications, is determined by their ability to successfully pass one or more of the following standard biological and/or pharmacological tests, viz., (1) measuring their ability to inhibit the enzyme activity of isolated aldose reductase; (2) measuring their ability to reduce or inhibit sorbitol accumulation in the sciatic nerve of acutely sterptozotocinized (i.e., diabetic) rats; (3) measuring their ability to reverse already-elevated sorbitol levels in the sciatic nerve and lens of chronic streptozotocin-induced diabetic rats; (4) measuring their ability to prevent or inhibit galactitol formation in the lens of acutely galactosemic rats, and (5) measuring their ability to delay cataract formation and reduce the severity of lens opacities in chronic galactosemic rats.
(§2) To determine the effect of 6-fluoro-spiro-[chroman-4,4'-imidazolidine]-2',5'-dione on cataract formation in galactosemis, rats were fed a 30% galactose diet with and without this compound for a period of 29 days and eye examinations also were routinely conducted approximately twice a week throughout this period. The experimental animals received the test compound mixed in the food at concentration levels necessary to afford approximate doses of 10 mg./kg. and 20 mg./kg., respectively. Control animals received the galactose diet alone (i.e., without the compound). […] The corresponding value obtained in rats receiving the test compound at 20 mg./kg. was 0%.
The effectiveness of 6-fluoro-spiro-[chroman-4,4'-imidazolidine]-2',5'-dione in delaying cataract development in rats is further highlighted by the test producedure of Example XLIV by giving careul consideration to the severity of the lenticular opacities involved. In this study, the percentage of lens areas involved were monitored throughout the 29-day period and the results obtained served as an index of severity. […]

[2] = system: sorbitol levels in the sciatic nerve and lens of diabetic subjects; test: lowering of sorbitol levels in sciatic nerve (peripheral nerves) and lens of diabetic subjects (summary statement); format: in vivo; conditions: qualitative statement
[3] = system: sorbitol levels in diabetic rats; test: control of sorbitol formation in diabetic rats, oral route (summary statement); format: in vivo, rat; conditions: 0.75 mg./kg. to 20 mg./kg.
Source text: As previously indicated, the spiro-hydantoin compounds of this invention are all readily adapted to therapeutic use as aldose reductase inhibitors for the control of chronic diabetic complications, in view of their ability to reduce lens sorbitol levels in diabetic subjects to a staistically significant degree. […] The other compounds of this invention also cause similar results. Furthermore, all the herein described compounds of this invention can be administered by either the oral or parenteral routes of administration, for the present purposes at hand, without causing any significant untoward pharmacological side reactions to occur in the subject to whom they are so administered. In general, these compounds are ordinarily administered in dosages ranging from about 0.1 mg. to about 10 mg. per kg. of body weight per day, although variations will necessarily occur depending upon the weight and condition of the subject being treated and the particular route of administration chosen.

[4] = target: T1, aldose reductase (Bos taurus, UniProt P16116); test: inhibition of aldose reductase enzyme activity (procedure of S. Hayman et al., modified by K. Sestanj et al.); format: biochemical, calf
T1 construct: partially purified aldose reductose enzyme obtained from calf lens; from tissue; host or cells: calf lens
Description: as §1
Hayman et al., as described in the Journal of Biological Chemistry, Vol. 240, p. […] In every case, the substrate employed ws partially purified aldose reductose enzyme obtained from calf lens.

[5] = system: cataract formation in galactosemic rats; test: delay of cataract formation in galactosemic rats (incidence of lenticular opacities); format: in vivo, rat; conditions: 30% galactose diet
Description: as §1, §2

[6] = system: galactitol formation in acutely galactosemic rats (lens); test: inhibition of galactitol formation in the lens of acutely galactosemic rats; format: in vivo, rat; conditions: 30% galactose diet, seven days
Description: as §1
The ability of 6-fluoro-spiro-[chroman-4,4'-imidazolidine]-2',5'-dione to prevent or inhibit galactitol formation in acutely galactosemic rats was determined by administering said compound to the animals, via their feed, for a period of seven days. In this study, normal male rats were first divided into groups of six animals each and then fed a 30% galactose diet together with the compound to be administered at three different dosage levels. […]

[7] = system: sorbitol levels in the sciatic nerve and the lens of streptozotocin-induced diabetic rats; test: reversal of already-elevated sorbitol levels in sciatic nerve and lens of chronic streptozotocin-induced diabetic rats; format: in vivo, rat; conditions: 2.5 mg./kg. orally twice a day, seven days; two weeks after streptozotocin 65 mg./kg. i.v.; three hours post dose
Description: as §1
6-Fluoro-spiro-[chroman-4,4'-imidazolidine]-2',5'-dione (the product of Example XXII) was tested for its ability to reverse already-elevated sorbital levels in streptozotocininduced diabetic rats of two weeks duration (i.e., chronic) by administering said compound orally to the animals for a period of seven days. In this study, the sorbital determinations were carried out in both the sciatic nerve and the lens. Streptozotocin was first administered to the animals at 65 mg./kg., via the intravenous route. […]

[8] = system: galactitol levels in the lens of galactosemic subjects; test: lowering of galactitol levels in the lens of galactosemic subjects (summary statement); format: in vivo; conditions: qualitative statement
[9] = system: sorbitol accumulation in the sciatic nerve of streptozotocinized (i.e., diabetic) rats; test: inhibition of sorbitol accumulation in the sciatic nerve of acutely streptozotocinized (diabetic) rats; format: in vivo, rat; conditions: measured at 27 h, vs untreated
Description: as §1
The following spiro-hydantoin compounds of Preparation C and Examples I-V, VII-IX, XI-XVII, XIX-XXV, XXVII and XXX-XXXIII, respectively, were tested for their ability to reduce or inhibit sorbitol accumulation in the sciatic nerve of streptozotocinized (i.e., diabetic) rats by the procedure essentially described in U.S. Pat. No. 3,821,383. In the present study, the amount of sorbitol accumulation in the sciatic nerves was measured 27 hours after induction of diabetes. The compounds were administered orally at the dose levels indicated at 4, 8 nd 24 hours following the administration of streptozotocin. The results obtained in this manner are presented below in terms of percent inhibition (%) afforded by the test compound as compared to the case where no compound was administered (i.e., the untreated animal where sorbitol levels normally rise from approximately […]. tissue to as high as […]. tissue in the 27-hour test period): […]

[10] = format: physicochemical
Description: The sodium salt of 6-fluoro-spiro-[chroman-4,4'-imidazolidine]-2',5'-dione is prepared by dissolving said compound in water containing an equivalent amount in moles of sodium hydroxide and then freeze-drying the mixture.

For `O=C1NC(=O)C2(CCOc3ccc(F)cc32)N1` (stereo not shown) [Ex. XXII, 6-fluoro-spiro[chroman-4,4'-imidazolidine]-2',5'-dione], the “lenses with area of involvement never less than 10%” value ([1]; 10 mg./kg.) was 6%, the “lenses with area of involvement never less than 10%” value ([1]; 20 mg./kg.) was 0% and the “severity of lenticular opacities versus control group” value ([1]; treated groups, including 29-day mark) was “always less than that found in the control group”. The “lowering of sorbitol levels in sciatic nerve (peripheral nerves) and lens (in words)” value [2] was “extremely effective”, the “control (inhibition) of the formation of sorbitol levels (in words)” value [3] was “to a significantly high degree” and the inhibition at 100 µM ([4]; 10^-4 M, calf lens enzyme, read-out: Percent inhibition of aldose reductase enzyme activity) was 84%. The inhibition at 10 µM ([4]; 10^-5 M, calf lens enzyme, read-out: Percent inhibition of aldose reductase enzyme activity) was 58%, the inhibition at 1 µM ([4]; 10^-6 M, calf lens enzyme, read-out: Percent inhibition of aldose reductase enzyme activity) was 52% and the inhibition at 0.1 µM ([4]; 10^-7 M, calf lens enzyme, read-out: Percent inhibition of aldose reductase enzyme activity) was 3%. The “aldose reductase inhibitory activity (in words)” value ([4]; qualitative statement) was “highly potent”, the “delay in cataract formation” value ([5]; 20 mg./kg., 29-day mark) was “an impressive delay in cataract formation was still observed at the 29-day mark” and the “eyes with lenticular opacities” value ([5]; 22-day mark, 10 mg./kg. in food) was “greater than 90%”. The “eyes with lenticular opacities” value ([5]; 29-day mark, 20 mg./kg. in food) was 37%, the “eyes with lenticular opacities” value ([5]; 17 days, 10 mg./kg. in food, control 100%) was 6% and the “eyes with lenticular opacities” value ([5]; 17 days, 20 mg./kg. in food, control 100%) was 0%. The “lenticular opacities in the eyes” value ([5]; after 8-14 days, either 10 mg./kg. or 20 mg./kg. in food, control 90% of eyes) was “no opacities being present”, the “delay in cataract formation” value ([5]; all treated groups (10 and 20 mg./kg.)) was “delay in cataract formation continued in all the treated groups until the 22-day mark” and the “inhibition of galactitol values in the lens” value ([6]; 10 mg./kg. in feed) was 40%. The “inhibition of galactitol values in the lens” value ([6]; 20 mg./kg. in feed) was 72%, the “reduction in sorbitol levels in the lens” value [7] was 71% and the “reduction in sorbitol levels in the sciatic nerve” value [7] was 68%. For the same compound, the “lowering of galactitol levels in the lens (in words)” value [8] was “extremely effective”, the “Percent inhibition of sorbitol accumulation in the sciatic nerve” value ([9]; 0.75 mg./kg. orally at 4, 8 and 24 h after streptozotocin) was 45% and the “Percent inhibition of sorbitol accumulation in the sciatic nerve” value ([9]; 1.5 mg./kg. orally at 4, 8 and 24 h after streptozotocin) was 72%.

In the case of `O=C1NC(=O)C2(CCOc3ccc(F)cc32)N1` (stereo not shown) [sodium salt of 6-fluoro-spiro-[chroman-4,4'-imidazolidine]-2',5'-dione], the solubility in water [10] is reported as “freely soluble in water”.

Reference: patent publication US4117230A, “Hydantoin derivatives as therapeutic agents” (priority 1977, dated 1978)
